Test results published in PubChem BioAssay AID180 (DTP/NCI, 2004).
Where “and” joins values, the source holds several entries; their conditions need not be identical. Identical values can stand only once.

Test system: BDF1 mice, Adenocarcinoma 755 s.c., tumor weight T/C
Test: NCI In Vivo Anticancer Drug Screen. Data for tumor model Adenocarcinoma 755 (subcutaneous) in B6D2F1 (BDF1) mice
Conditions: endpoint: mean tumor weight, higher = larger tumour
Procedure, shortened: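 Values express treated (T) relative to vehicle-dosed control (C) animals, based on survival or tumour size measured after compound treatment of mice bearing a transplanted tumour.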

[1] = dose: 25.0 mg/kg/injection, schedule: Q01DX011 (ip), vehicle: methylcellulose (MC)

Question: With `CCCn1cnc2c(SCc3ccccc3)nc(N)nc21` as the compound, how does the T/C (dose: 7.81 mg/kg/injection, schedule: Q01DX011 (ip), vehicle: methylcellulose (MC)) read?
Answer: 43 % of control

Question: And the T/C (dose: 15.62 mg/kg/injection, schedule: Q01DX011 (ip), vehicle: methylcellulose (MC))?
Answer: 9 % of control

Question: What about the T/C (dose: 31.25 mg/kg/injection, schedule: Q01DX011 (ip), vehicle: methylcellulose (MC)) of the same compound?
Answer: 37 % of control

Question: What about the T/C (dose: 62.5 mg/kg/injection, schedule: Q01DX011 (ip), vehicle: methylcellulose (MC)) of the same compound?
Answer: 1 % of control

Question: What does the source list for `Nc1nc(SC2=NCCN2)c2[nH]cnc2n1`?
Answer: T/C (dose: 0.75 mg/kg/injection, schedule: Q01DX011 (ip), vehicle: carboxymethylcellulose (CMC)): 22 % of control; T/C (dose: 1.5 mg/kg/injection, schedule: Q01DX011 (ip), vehicle: carboxymethylcellulose (CMC)): 6 % of control; T/C (dose: 3.0 mg/kg/injection, schedule: Q01DX011 (ip), vehicle: carboxymethylcellulose (CMC)): 6 % of control; T/C (dose: 90.0 micrograms/kg/injection, schedule: Q01DX011 (ip), vehicle: carboxymethylcellulose (CMC)): 57 % of control; T/C (dose: 187.0 micrograms/kg/injection, schedule: Q01DX011 (ip), vehicle: carboxymethylcellulose (CMC)): 88 % of control; T/C (dose: 370.0 micrograms/kg/injection, schedule: Q01DX011 (ip), vehicle: carboxymethylcellulose (CMC)): 79 % of control; T/C (dose: 750.0 micrograms/kg/injection, schedule: Q01DX011 (ip), vehicle: carboxymethylcellulose (CMC)): 33 % of control

Question: Which results are given for `CCCn1cnc2c(SCC(=O)O)nc(N)nc21`?
Answer: T/C [1]: 58 % of control; T/C (dose: 50.0 mg/kg/injection, schedule: Q01DX011 (ip), vehicle: methylcellulose (MC)): 37 % of control; T/C (dose: 100.0 mg/kg/injection, schedule: Q01DX011 (ip), vehicle: methylcellulose (MC)): 46 % of control; T/C (dose: 200.0 mg/kg/injection, schedule: Q01DX011 (ip), vehicle: methylcellulose (MC)): 36 % of control

Question: Which T/C (dose: 25.0 mg/kg/injection, schedule: Q01DX011 (ip), vehicle: saline) does the source give for `Nc1ncnc2c1ncn2CCN(CCO)CCO` here?
Answer: 172 % of control

Question: What about the T/C (dose: 225.0 mg/kg/injection, schedule: Q01DX011 (ip), vehicle: saline) of the same compound?
Answer: 158 % of control

Question: Which T/C (dose: 100.0 mg/kg/injection, schedule: Q01DX011 (ip), vehicle: water) does the source give for `CC(C)=NOC(N)=O` here?
Answer: 122 % of control

Question: What about the T/C (dose: 200.0 mg/kg/injection, schedule: Q01DX011 (ip), vehicle: water) of the same compound?
Answer: 106 % of control

Question: `O=C1Cc2ccccc2C(=O)N1` was tested. Which T/C (dose: 7.5 mg/kg/injection, schedule: Q01DX011 (ip), vehicle: carboxymethylcellulose (CMC)) did it give?
Answer: 79 % of control

Question: And the T/C (dose: 15.0 mg/kg/injection, schedule: Q01DX011 (ip), vehicle: carboxymethylcellulose (CMC))?
Answer: 104 % of control

Question: What about the T/C (dose: 30.0 mg/kg/injection, schedule: Q01DX011 (ip), vehicle: carboxymethylcellulose (CMC)) of the same compound?
Answer: 107 % of control

Question: And the T/C (dose: 60.0 mg/kg/injection, schedule: Q01DX011 (ip), vehicle: carboxymethylcellulose (CMC))?
Answer: 56 % of control

Question: Which results are given for `CN(CC#N)/N=N/c1nc[nH]c1C(N)=O`?
Answer: T/C (dose: 37.0 mg/kg/injection, schedule: Q01DX011 (ip), vehicle: carboxymethylcellulose (CMC)): 108 % of control; T/C (dose: 75.0 mg/kg/injection, schedule: Q01DX011 (ip), vehicle: carboxymethylcellulose (CMC)): 73 % of control

Question: For `Nc1nc(SCc2ccccc2)c2ncn(C3CCCCC3)c2n1`, which T/C [1] is on record?
Answer: 113 % of control

Question: And the T/C (dose: 75.0 mg/kg/injection, schedule: Q01DX011 (ip), vehicle: methylcellulose (MC))?
Answer: 121 % of control

Question: And the T/C (dose: 225.0 mg/kg/injection, schedule: Q01DX011 (ip), vehicle: methylcellulose (MC))?
Answer: 210 % of control

Question: `[I][Hg][CH2]C1COC([CH2][Hg][I])CO1` (stereo unspecified) was tested. Which T/C (dose: 0.8 mg/kg/injection, schedule: Q#A X022 (ip), vehicle: carboxymethylcellulose (CMC)) did it give?
Answer: 96 % of control

Question: What about the T/C (dose: 1.25 mg/kg/injection, schedule: Q#A X022 (ip), vehicle: carboxymethylcellulose (CMC)) of the same compound?
Answer: 43 % of control

Question: And the T/C (dose: 1.9 mg/kg/injection, schedule: Q#A X022 (ip), vehicle: carboxymethylcellulose (CMC))?
Answer: 84 % of control

Question: What about the T/C (dose: 2.85 mg/kg/injection, schedule: Q#A X022 (ip), vehicle: carboxymethylcellulose (CMC)) of the same compound?
Answer: 35 % of control and 50 % of control

Question: What about the T/C (dose: 2.9 mg/kg/injection, schedule: Q01DX006 (iv), vehicle: carboxymethylcellulose (CMC)) of the same compound?
Answer: 154 % of control

Question: And the T/C (dose: 4.3 mg/kg/injection, schedule: Q#A X022 (ip), vehicle: carboxymethylcellulose (CMC))?
Answer: 36 % of control

Question: What about the T/C (dose: 4.4 mg/kg/injection, schedule: Q01DX006 (iv), vehicle: carboxymethylcellulose (CMC)) of the same compound?
Answer: 90 % of control

Question: What about the T/C (dose: 6.5 mg/kg/injection, schedule: Q#A X022 (ip), vehicle: carboxymethylcellulose (CMC)) of the same compound?
Answer: 23 % of control

Question: And the T/C (dose: 6.6 mg/kg/injection, schedule: Q01DX006 (iv), vehicle: carboxymethylcellulose (CMC))?
Answer: 95 % of control

Question: What about the T/C (dose: 10.0 mg/kg/injection, schedule: Q01DX006 (iv), vehicle: carboxymethylcellulose (CMC)) of the same compound?
Answer: 78 % of control

Question: What about the T/C (dose: 22.0 mg/kg/injection, schedule: Q03DX004 (ip), vehicle: carboxymethylcellulose (CMC)) of the same compound?
Answer: 62 % of control

Question: What about the T/C (dose: 24.0 mg/kg/injection, schedule: Q01DX011 (oral), vehicle: carboxymethylcellulose (CMC)) of the same compound?
Answer: 71 % of control

Question: What about the T/C (dose: 25.0 mg/kg/injection, schedule: Q01DX011 (oral), vehicle: methylcellulose (MC)) of the same compound?
Answer: 75 % of control

Question: And the T/C (dose: 35.0 mg/kg/injection, schedule: Q01DX001 (ip), vehicle: carboxymethylcellulose (CMC))?
Answer: 96 % of control

Question: What about the T/C (dose: 35.0 mg/kg/injection, schedule: Q01DX011 (oral), vehicle: carboxymethylcellulose (CMC)) of the same compound?
Answer: 92 % of control

Question: And the T/C (dose: 35.0 mg/kg/injection, schedule: Q03DX004 (ip), vehicle: carboxymethylcellulose (CMC))?
Answer: 69 % of control

Question: And the T/C (dose: 35.0 mg/kg/injection, schedule: Q07DX002 (ip), vehicle: carboxymethylcellulose (CMC))?
Answer: 77 % of control

Question: And the T/C (dose: 50.0 mg/kg/injection, schedule: Q01DX011 (oral), vehicle: methylcellulose (MC))?
Answer: 86 % of control

Question: What about the T/C (dose: 50.0 mg/kg/injection, schedule: Q03DX004 (ip), vehicle: carboxymethylcellulose (CMC)) of the same compound?
Answer: 51 % of control

Question: And the T/C (dose: 55.0 mg/kg/injection, schedule: Q01DX011 (oral), vehicle: carboxymethylcellulose (CMC))?
Answer: 81 % of control

Question: And the T/C (dose: 60.0 mg/kg/injection, schedule: Q01DX011 (ip), vehicle: methylcellulose (MC))?
Answer: 15 % of control

Question: And the T/C (dose: 80.0 mg/kg/injection, schedule: Q01DX011 (oral), vehicle: carboxymethylcellulose (CMC))?
Answer: 78 % of control

Question: What about the T/C (dose: 85.0 mg/kg/injection, schedule: Q01DX001 (ip), vehicle: carboxymethylcellulose (CMC)) of the same compound?
Answer: 89 % of control

Question: And the T/C (dose: 100.0 mg/kg/injection, schedule: Q01DX011 (oral), vehicle: methylcellulose (MC))?
Answer: 74 % of control

Question: What about the T/C (dose: 120.0 mg/kg/injection, schedule: Q01DX011 (ip), vehicle: methylcellulose (MC)) of the same compound?
Answer: 60 % of control

Question: What about the T/C (dose: 160.0 mg/kg/injection, schedule: Q01DX011 (im), vehicle: carboxymethylcellulose (CMC)) of the same compound?
Answer: 36 % of control

Question: What about the T/C (dose: 160.0 mg/kg/injection, schedule: Q01DX011 (sc), vehicle: carboxymethylcellulose (CMC)) of the same compound?
Answer: 42 % of control

Question: And the T/C (dose: 240.0 mg/kg/injection, schedule: Q01DX011 (sc), vehicle: carboxymethylcellulose (CMC))?
Answer: 8 % of control

Question: What about the T/C (dose: 360.0 mg/kg/injection, schedule: Q01DX011 (im), vehicle: carboxymethylcellulose (CMC)) of the same compound?
Answer: 10 % of control

Question: What does the source list for `c1ccc2cc(-c3cc4ccccc4s3)ccc2c1`?
Answer: T/C (dose: 100.0 mg/kg/injection, schedule: Q01DX011 (ip), vehicle: saline): 70 % of control; T/C (dose: 200.0 mg/kg/injection, schedule: Q01DX011 (ip), vehicle: saline): 59 % of control; T/C (dose: 400.0 mg/kg/injection, schedule: Q01DX011 (ip), vehicle: saline): 49 % of control; T/C (dose: 800.0 mg/kg/injection, schedule: Q01DX011 (ip), vehicle: saline): 42 % of control

Question: Which results are given for `O=C1C=CC(=O)O1` (tested in a mixture with another compound)?
Answer: T/C (dose: 11.0 mg/kg/injection, schedule: Q01DX011 (ip), vehicle: carboxymethylcellulose (CMC)): 39 % of control and 57 % of control; T/C (dose: 11.0 mg/kg/injection, schedule: Q01DX011 (ip), vehicle: saline): 56 % of control; T/C (dose: 22.0 mg/kg/injection, schedule: Q01DX011 (ip), vehicle: carboxymethylcellulose (CMC)): 18 % of control and 38 % of control; T/C (dose: 22.0 mg/kg/injection, schedule: Q01DX011 (ip), vehicle: saline): 31 % of control; T/C (dose: 90.0 mg/kg/injection, schedule: Q01DX011 (ip), vehicle: carboxymethylcellulose (CMC)): 11 % of control and 32 % of control

Question: With `CNc1nc(SCc2ccccc2)ncc1C` as the compound, how does the T/C (dose: 31.0 mg/kg/injection, schedule: Q01DX011 (ip), vehicle: methylcellulose (MC)) read?
Answer: 60 % of control

Question: What about the T/C (dose: 125.0 mg/kg/injection, schedule: Q01DX011 (ip), vehicle: methylcellulose (MC)) of the same compound?
Answer: 82 % of control

Question: What about the T/C (dose: 250.0 mg/kg/injection, schedule: Q01DX011 (ip), vehicle: methylcellulose (MC)) of the same compound?
Answer: 52 % of control

Question: Which T/C (dose: 6.25 mg/kg/injection, schedule: Q01DX011 (ip), vehicle: carboxymethylcellulose (CMC)) does the source give for `NC(N)=Nc1nc2ccccc2s1` here?
Answer: 108 % of control

Question: What about the T/C (dose: 6.25 mg/kg/injection, schedule: Q01DX011 (ip), vehicle: other) of the same compound?
Answer: 84 % of control

Question: What about the T/C (dose: 6.25 mg/kg/injection, schedule: Q01DX011 (ip), vehicle: water) of the same compound?
Answer: 105 % of control

Question: And the T/C (dose: 12.5 mg/kg/injection, schedule: Q01DX011 (ip), vehicle: carboxymethylcellulose (CMC))?
Answer: 53 % of control

Question: What about the T/C (dose: 25.0 mg/kg/injection, schedule: Q01DX011 (ip), vehicle: other) of the same compound?
Answer: 90 % of control

Question: And the T/C (dose: 25.0 mg/kg/injection, schedule: Q01DX011 (ip), vehicle: water)?
Answer: 84 % of control

Question: What about the T/C (dose: 50.0 mg/kg/injection, schedule: Q01DX011 (ip), vehicle: water) of the same compound?
Answer: 48 % of control
